# Results reported in ChEMBL document CHEMBL1201862, “PubChem BioAssay data set” (2004).
#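 Briefly, cells in 96-well plates were exposed to five compound concentrations for 48 h, and endpoints were estimated by linear interpolation. GI50 = concentration required for 50% inhibition of growth.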 Calls of active or inactive are those of the source. Rule as the data show it: active = GI50 up to about 1.1 µM and inactive = higher.
# Columns and labels:
# Test in all cases: growth of human tumour cells (NCI), 48 h
# [1] = tested on: DLD-1
# [2] = tested on: DMS-114
# [3] = tested on: DMS-273
# [4] = tested on: HOP-18
# [5] = tested on: KM-20L2
# [6] = tested on: RXF 631
# [7] = tested on: SNB-78
# [8] = tested on: XF498
# [9] = tested on: BT-549
compound,measurement,setting,value
Cc1ccccc1-c1c(N)nc(NC#N)nc1C(=O)Nc1ccccc1,GI50,[1],> 100 µM (inactive)
same,GI50,[2],> 100 µM (inactive)
same,GI50,[3],> 100 µM (inactive)
same,GI50,[4],> 100 µM (inactive)
same,GI50,[5],> 100 µM (inactive)
same,GI50,[6],> 100 µM (inactive)
same,GI50,[7],> 100 µM (inactive)
CCOC(=O)c1nc2ccc(Cl)cc2c2c1CCO2,GI50,[1],> 100 µM (inactive)
same,GI50,[2],64.3 µM (inactive)
same,GI50,[3],> 100 µM (inactive)
same,GI50,[4],23.6 µM (inactive)
same,GI50,[5],> 100 µM (inactive)
same,GI50,[7],> 100 µM (inactive)
same,GI50,[8],72.8 µM (inactive)
CC(C)C1CCC/C=C/C=C/C=C/C=C/C(OC2OC(C)C(O)C(N)C2O)CC2OC(O)(CC(O)CC(O)C(O)CCC(=O)O1)CC(O)C2C(=O)O (stereo not given),GI50,[2],> 52.5 µM (inactive)
same,GI50,[4],> 52.5 µM (inactive)
same,GI50,[5],> 52.5 µM (inactive)
same,GI50,[7],> 52.5 µM (inactive)
C=C1C(=O)OC2C1CCC(=C)C1CC(O)C(=C)C12 (stereo not given),GI50,[9],15.3 µM (inactive)
O=C(CCCCCCCCC(=O)N1C(=O)CC(=O)N(c2ccc(Cl)cc2)C1=S)N1C(=O)CC(=O)N(c2ccc(Cl)cc2)C1=S,GI50,[9],67 µM (inactive)
O=C(O)c1ccccc1/N=N/c1ccc2oc(=O)c(C(=O)Nc3ccccc3)cc2c1,GI50,[1],40.9 µM (inactive)
same,GI50,[2],25.1 µM (inactive)
same,GI50,[3],39 µM (inactive)
same,GI50,[4],30.1 µM (inactive)
same,GI50,[5],24.8 µM (inactive)
same,GI50,[8],45.8 µM (inactive)
O=C(OCC12CC3CC(CC(C3)C1)C2)c1ccc(NCc2cc(O)ccc2O)cc1,GI50,[9],0.331 µM (active)
O=C(O)c1cc(/N=N/c2ccc([N+](=O)[O-])cc2)ccc1O,GI50,[9],42.4 µM (inactive)
Nc1n[nH]c2c(C(=O)Nc3ccc(Cl)cc3)c(N)n(N)c(=O)c12,GI50,[9],> 100 µM (inactive)
O=c1c(Cc2ccccc2Cc2c(O)oc3ccccc3c2=O)c(O)oc2ccccc12,GI50,[9],> 100 µM (inactive)
CCC1CCC2c3c([nH]c4ccccc34)C3C(=O)N(c4ccc(OC)cc4)C(=O)C3C2C1 (stereo not given),GI50,[9],> 100 µM (inactive)
CCCN(CCCN)/[N+]([O-])=N\O,GI50,[1],> 100 µM (inactive)
same,GI50,[2],> 100 µM (inactive)
same,GI50,[3],> 100 µM (inactive)
same,GI50,[4],> 100 µM (inactive)
same,GI50,[5],0.4 µM (active)
same,GI50,[6],> 100 µM (inactive)
same,GI50,[7],> 100 µM (inactive)
O=C1NC(=S)N/C1=C\c1cccs1,GI50,[9],> 100 µM (inactive)
CC(=O)C(=[N+]=[N-])C(=O)OCCOC(=O)C(=[N+]=[N-])C(C)=O,GI50,[9],> 1 µM (active)
CNC(=O)[C@H](Cc1ccccc1)NC(=O)N(CCC#N)CCN(C(=O)N[C@@H](Cc1ccccc1)C(=O)OC)c1ccccc1,GI50,[9],> 100 µM (inactive)
C=C1C2CC[C@@](C)(O)C2[C@H]2OC(=O)C(=C)[C@@H]2C[C@H]1O (stereo not given in full),GI50,[9],10.3 µM (inactive)
COC(=O)c1c(O)ccc2c1C1(Cc3ccccc3C1=O)C(O)O2 (stereo not given),GI50,[9],5.09 µM (inactive)
COc1nc(N=P(c2ccccc2)(c2ccccc2)c2ccccc2)cc(=O)[nH]1,GI50,[9],> 100 µM (inactive)
N#CCCOc1cccc(C2(N3CCCCC3)CCCCC2)c1,GI50,[9],> 100 µM (inactive)
Cc1c2n(c(=O)[nH]c1=O)C1OC(CO)C(O2)C1O (stereo not given),GI50,[1],> 100 µM (inactive)
same,GI50,[2],> 100 µM (inactive)
same,GI50,[3],> 100 µM (inactive)
same,GI50,[5],> 100 µM (inactive)
same,GI50,[7],> 100 µM (inactive)
BC(=O)NC(CC(C)C)C(=O)NC1c2ccsc2C(=O)C1O.CN(C)C (stereo not given),GI50,[9],> 100 µM (inactive)
CC(C)(C)OC(=O)NCC(c1c[nH]c2ccc(Br)cc12)c1c[nH]c2ccc(Br)cc12,GI50,[9],12.4 µM (inactive)
O=C(c1ccc(Cl)cc1)N(C(=S)N1CCN(c2ccccn2)CC1)C1CCCCC1,GI50,[1],81.7 µM (inactive)
same,GI50,[2],34.9 µM (inactive)
same,GI50,[3],34.3 µM (inactive)
same,GI50,[4],> 100 µM (inactive)
same,GI50,[5],74.1 µM (inactive)
same,GI50,[7],> 100 µM (inactive)
same,GI50,[8],8.26 µM (inactive)
O=C(c1cc(Cl)cc(Cl)c1)N1CCN(C(=O)c2cc(Cl)cc(Cl)c2)C1=S,GI50,[9],24.9 µM (inactive)
CCc1c(Cc2[nH]c(Cc3[nH]c(C=O)c(C)c3CC)c(CC)c2CC)[nH]c(C=O)c1C,GI50,[1],> 100 µM (inactive)
same,GI50,[2],> 100 µM (inactive)
same,GI50,[3],> 100 µM (inactive)
same,GI50,[4],> 100 µM (inactive)
same,GI50,[5],> 100 µM (inactive)
same,GI50,[7],> 100 µM (inactive)
same,GI50,[8],> 100 µM (inactive)
COC(=O)Cc1cc(=O)oc2c1C(=O)CCC2,GI50,[1],> 100 µM (inactive)
same,GI50,[2],> 100 µM (inactive)
same,GI50,[3],> 100 µM (inactive)
same,GI50,[5],> 100 µM (inactive)
same,GI50,[7],> 100 µM (inactive)
same,GI50,[8],> 100 µM (inactive)
CCCNC(=O)Cn1c(C)cc2ccccc21,GI50,[9],> 100 µM (inactive)
COP(=O)(CC(=O)C1OC(OCc2ccccc2)C(OCc2ccccc2)C(OCc2ccccc2)C1OCc1ccccc1)OC (stereo not given),GI50,[9],17.4 µM (inactive)
COc1cc(OC)c(-c2cc(=O)c3c(OC)c(OC)c(OC)c(OC)c3o2)cc1OC,GI50,[9],> 100 µM (inactive)
O=C(NCc1ccccc1Cl)c1c(O)c2ccccc2[nH]c1=O,GI50,[9],34.9 µM (inactive)
CC1=C(c2ccc(C)cc2)NC(=S)C(C)C(c2ccc(C)cc2)=N1 (stereo not given),GI50,[9],72.3 µM (inactive)
Nc1cc(O)nc(SC2=NC(N)CC(O)C2)n1 (stereo not given),GI50,[1],> 100 µM (inactive)
same,GI50,[2],> 100 µM (inactive)
same,GI50,[3],> 100 µM (inactive)
same,GI50,[4],> 100 µM (inactive)
same,GI50,[5],> 100 µM (inactive)
same,GI50,[7],> 100 µM (inactive)
same,GI50,[8],> 100 µM (inactive)
